Laboratory results from ChEMBL document CHEMBL1201862, “PubChem BioAssay data set” (2004).
Each block holds one compound with its values, some of them ahead of it. Calls of active or inactive are those of the source.

How the values were obtained:
Format in all cases: functional
[1] = target: T1, G-protein coupled receptor 35 (Homo sapiens, UniProt Q9HC97); assay: SAR analysis of Agonists of the GPR35 Receptor using an Image-Based Assay - Set 3. [Related pubchem assays (depositor defined):AID1961, AID1965]
T1 sequence (Q9HC97 whole entry): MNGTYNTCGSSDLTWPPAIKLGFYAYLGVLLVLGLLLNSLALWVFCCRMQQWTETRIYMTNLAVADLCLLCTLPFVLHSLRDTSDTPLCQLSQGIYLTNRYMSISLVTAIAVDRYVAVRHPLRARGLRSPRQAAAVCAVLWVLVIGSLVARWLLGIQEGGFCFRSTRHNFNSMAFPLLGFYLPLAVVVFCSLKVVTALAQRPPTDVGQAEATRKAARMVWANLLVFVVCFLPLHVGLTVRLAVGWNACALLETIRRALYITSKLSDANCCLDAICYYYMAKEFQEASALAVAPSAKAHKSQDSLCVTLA

[2] = target: G-protein coupled receptor 55 (Homo sapiens, UniProt Q9Y2T6); assay: SAR analysis of selective Agonists of GPR55 using an Image-Based Assay - Set 2. [Related pubchem assays (depositor defined):AID1961, AID1965]
Chain of G-protein coupled receptor 55 (Q9Y2T6 whole entry): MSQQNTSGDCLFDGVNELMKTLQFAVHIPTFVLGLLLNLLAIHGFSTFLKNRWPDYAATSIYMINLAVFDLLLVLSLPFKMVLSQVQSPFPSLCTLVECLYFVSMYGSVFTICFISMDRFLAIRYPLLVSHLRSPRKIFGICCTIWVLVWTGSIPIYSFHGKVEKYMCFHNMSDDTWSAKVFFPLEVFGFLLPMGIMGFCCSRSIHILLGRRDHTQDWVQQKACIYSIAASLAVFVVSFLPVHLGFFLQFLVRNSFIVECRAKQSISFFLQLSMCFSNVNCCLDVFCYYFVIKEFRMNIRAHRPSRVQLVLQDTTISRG

[3] = target: T2, Cannabinoid receptor 2 (Homo sapiens, UniProt P34972); assay: SAR analysis of agonists of the Cannabinoid Receptor 2 using an Image-Based Assay - Set 2. [Related pubchem assays (depositor defined):AID1961, AID1965]
T2 sequence (P34972 whole entry): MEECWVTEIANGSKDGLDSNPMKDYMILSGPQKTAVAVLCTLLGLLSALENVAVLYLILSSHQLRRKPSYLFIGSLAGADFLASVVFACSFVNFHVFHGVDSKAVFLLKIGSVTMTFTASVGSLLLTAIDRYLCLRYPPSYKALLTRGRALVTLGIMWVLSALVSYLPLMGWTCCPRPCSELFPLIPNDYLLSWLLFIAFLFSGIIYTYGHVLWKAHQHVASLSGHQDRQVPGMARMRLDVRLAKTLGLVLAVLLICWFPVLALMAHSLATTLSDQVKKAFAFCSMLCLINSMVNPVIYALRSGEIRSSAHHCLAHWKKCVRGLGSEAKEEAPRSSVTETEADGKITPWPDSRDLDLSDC

[4] = target: T1, G-protein coupled receptor 35; assay: SAR analysis of Antagonists of the GPR35 Receptor using an Image-Based Assay - Set 4. [Related pubchem assays (depositor defined):[…]]
[5] = target: T3, Cannabinoid receptor 1 (Homo sapiens, UniProt P21554); assay: SAR analysis of agonists of the Cannabinoid Receptor 1 using an Image-Based Assay - Set 3. [Related pubchem assays (depositor defined):AID1961, AID1965]
T3 sequence (P21554 whole entry): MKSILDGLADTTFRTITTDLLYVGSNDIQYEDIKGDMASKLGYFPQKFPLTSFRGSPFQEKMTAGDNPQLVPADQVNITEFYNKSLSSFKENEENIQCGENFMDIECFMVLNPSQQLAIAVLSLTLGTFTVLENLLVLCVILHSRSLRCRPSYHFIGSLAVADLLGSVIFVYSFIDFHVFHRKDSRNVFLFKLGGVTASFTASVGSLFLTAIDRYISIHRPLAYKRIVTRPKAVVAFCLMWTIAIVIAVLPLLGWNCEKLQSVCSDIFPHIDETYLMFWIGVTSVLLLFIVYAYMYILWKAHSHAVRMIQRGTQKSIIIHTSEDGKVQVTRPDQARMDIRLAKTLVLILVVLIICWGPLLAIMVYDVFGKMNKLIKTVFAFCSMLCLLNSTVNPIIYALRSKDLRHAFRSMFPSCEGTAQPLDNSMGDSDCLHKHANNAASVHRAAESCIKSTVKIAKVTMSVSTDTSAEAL

[6] = target: T3, Cannabinoid receptor 1; assay: SAR analysis of antagonists of the Cannabinoid Receptor 1 using an Image-Based Assay - Set 3. [Related pubchem assays (depositor defined):AID1961, AID1965]
[7] = target: T2, Cannabinoid receptor 2; assay: SAR analysis of antagonists of the Cannabinoid Receptor 2 using an Image-Based Assay - Set 2. [Related pubchem assays (depositor defined):AID1961, AID1965]
[8] = target: T4, Dual specificity protein phosphatase 6 (Rattus norvegicus, UniProt Q64346);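 note: confirmatory in vitro dose-response testing of MKP-3 inhibition; recombinant His-tagged MKP-3 made in E. coli BL21 with OMFP substrate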
T4 sequence (Q64346 whole entry): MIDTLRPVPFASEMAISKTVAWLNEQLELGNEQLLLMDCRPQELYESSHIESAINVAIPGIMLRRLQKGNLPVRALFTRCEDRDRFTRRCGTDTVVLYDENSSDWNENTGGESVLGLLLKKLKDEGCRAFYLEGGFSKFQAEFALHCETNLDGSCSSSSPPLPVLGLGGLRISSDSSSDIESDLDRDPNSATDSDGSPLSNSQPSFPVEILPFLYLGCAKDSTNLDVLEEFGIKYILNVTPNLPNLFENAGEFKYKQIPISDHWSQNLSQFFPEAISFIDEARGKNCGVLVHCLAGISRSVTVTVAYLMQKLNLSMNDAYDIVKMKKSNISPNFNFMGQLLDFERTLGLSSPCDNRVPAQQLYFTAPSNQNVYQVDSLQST

[9] = target: Dual specificity protein phosphatase 3 (Homo sapiens, UniProt P51452); assay: SAR VHR1 Fluorescent Assay for In Vitro dose response studies Set 2. [Related pubchem assays (depositor defined):AID1654, AID1661, AID1878]
Chain of Dual specificity protein phosphatase 3 (P51452 whole entry): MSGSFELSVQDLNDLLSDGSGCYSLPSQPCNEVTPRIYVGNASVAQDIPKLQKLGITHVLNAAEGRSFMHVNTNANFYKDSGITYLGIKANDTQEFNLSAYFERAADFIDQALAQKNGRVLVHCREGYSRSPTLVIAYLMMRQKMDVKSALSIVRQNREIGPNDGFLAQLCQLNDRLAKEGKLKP

[10] = target: T5, Tyrosine-protein phosphatase non-receptor type 7 (Homo sapiens, UniProt P35236); assay: redox-active compounds inhibiting HePTP phosphatase – biochemical, fluorescence, mechanism study (AID 2068)
T5 sequence (P35236 whole entry): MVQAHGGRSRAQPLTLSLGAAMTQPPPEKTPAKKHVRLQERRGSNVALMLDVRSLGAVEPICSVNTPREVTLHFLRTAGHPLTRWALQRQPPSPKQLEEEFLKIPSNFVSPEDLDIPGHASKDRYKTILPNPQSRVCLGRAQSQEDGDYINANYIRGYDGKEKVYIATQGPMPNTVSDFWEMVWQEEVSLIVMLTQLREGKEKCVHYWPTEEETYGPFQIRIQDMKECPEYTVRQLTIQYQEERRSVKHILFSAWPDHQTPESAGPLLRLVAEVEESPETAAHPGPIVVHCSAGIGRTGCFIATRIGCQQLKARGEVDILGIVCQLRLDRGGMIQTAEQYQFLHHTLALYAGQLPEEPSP

[11] = target: Ion channel NompC (Danio rerio, UniProt Q7T1G6); assay: Dose response cell-based high-throughput screening assay for agonists of the transient receptor potential channel N1 (TRPN1). [Related pubchem assays (depositor defined):AID1424, AID1448]
Chain of Ion channel NompC (Q7T1G6 whole entry): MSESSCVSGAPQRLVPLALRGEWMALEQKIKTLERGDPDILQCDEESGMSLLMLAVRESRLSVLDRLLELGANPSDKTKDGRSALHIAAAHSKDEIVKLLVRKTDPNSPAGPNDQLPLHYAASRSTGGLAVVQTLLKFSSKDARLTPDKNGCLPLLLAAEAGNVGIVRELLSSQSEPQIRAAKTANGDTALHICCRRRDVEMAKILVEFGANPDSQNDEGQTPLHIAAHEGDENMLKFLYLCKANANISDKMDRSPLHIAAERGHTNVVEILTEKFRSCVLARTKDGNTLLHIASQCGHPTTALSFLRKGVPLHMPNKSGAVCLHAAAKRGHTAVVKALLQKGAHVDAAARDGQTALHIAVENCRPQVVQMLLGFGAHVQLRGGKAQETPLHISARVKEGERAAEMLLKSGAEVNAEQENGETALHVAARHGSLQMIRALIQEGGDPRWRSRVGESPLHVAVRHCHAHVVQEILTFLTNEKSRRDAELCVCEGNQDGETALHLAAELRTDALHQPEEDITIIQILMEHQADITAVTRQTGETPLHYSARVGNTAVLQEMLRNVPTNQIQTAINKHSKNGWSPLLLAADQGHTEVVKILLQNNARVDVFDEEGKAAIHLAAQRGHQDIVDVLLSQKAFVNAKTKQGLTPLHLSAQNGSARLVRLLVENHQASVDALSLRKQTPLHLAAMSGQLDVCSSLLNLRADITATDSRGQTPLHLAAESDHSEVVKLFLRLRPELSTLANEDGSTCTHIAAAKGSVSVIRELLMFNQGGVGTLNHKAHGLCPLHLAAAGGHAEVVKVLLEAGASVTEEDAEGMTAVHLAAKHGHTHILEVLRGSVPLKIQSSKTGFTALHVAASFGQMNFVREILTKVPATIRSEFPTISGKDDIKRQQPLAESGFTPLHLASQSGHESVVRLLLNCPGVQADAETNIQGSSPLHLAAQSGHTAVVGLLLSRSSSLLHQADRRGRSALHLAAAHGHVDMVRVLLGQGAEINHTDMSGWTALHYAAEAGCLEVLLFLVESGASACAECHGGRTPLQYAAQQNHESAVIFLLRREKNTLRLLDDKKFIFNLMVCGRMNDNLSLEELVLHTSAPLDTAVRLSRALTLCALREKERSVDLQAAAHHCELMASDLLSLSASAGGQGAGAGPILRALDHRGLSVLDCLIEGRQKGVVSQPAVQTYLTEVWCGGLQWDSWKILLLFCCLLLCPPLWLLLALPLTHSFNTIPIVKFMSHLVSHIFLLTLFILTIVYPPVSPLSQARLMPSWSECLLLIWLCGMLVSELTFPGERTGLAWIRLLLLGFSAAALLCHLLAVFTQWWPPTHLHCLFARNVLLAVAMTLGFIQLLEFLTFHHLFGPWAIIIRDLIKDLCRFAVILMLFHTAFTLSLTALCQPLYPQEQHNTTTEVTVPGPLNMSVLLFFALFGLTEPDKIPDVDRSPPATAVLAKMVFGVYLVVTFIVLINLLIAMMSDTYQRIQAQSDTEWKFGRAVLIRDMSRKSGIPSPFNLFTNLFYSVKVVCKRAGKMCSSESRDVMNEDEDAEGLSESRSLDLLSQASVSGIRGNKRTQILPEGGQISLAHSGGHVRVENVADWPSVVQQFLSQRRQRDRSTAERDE

[12] = target: Mucolipin-3 (Homo sapiens, UniProt Q8TDD5); assay: Fluorescence counterscreen assay for […] agonists: dose response cell-based high-throughput screening assay to identify agonists of the transient receptor potential channel ML3 (TRPML3). [Related pubchem assays: 1424, 1448 ]
Chain of Mucolipin-3 (Q8TDD5 whole entry): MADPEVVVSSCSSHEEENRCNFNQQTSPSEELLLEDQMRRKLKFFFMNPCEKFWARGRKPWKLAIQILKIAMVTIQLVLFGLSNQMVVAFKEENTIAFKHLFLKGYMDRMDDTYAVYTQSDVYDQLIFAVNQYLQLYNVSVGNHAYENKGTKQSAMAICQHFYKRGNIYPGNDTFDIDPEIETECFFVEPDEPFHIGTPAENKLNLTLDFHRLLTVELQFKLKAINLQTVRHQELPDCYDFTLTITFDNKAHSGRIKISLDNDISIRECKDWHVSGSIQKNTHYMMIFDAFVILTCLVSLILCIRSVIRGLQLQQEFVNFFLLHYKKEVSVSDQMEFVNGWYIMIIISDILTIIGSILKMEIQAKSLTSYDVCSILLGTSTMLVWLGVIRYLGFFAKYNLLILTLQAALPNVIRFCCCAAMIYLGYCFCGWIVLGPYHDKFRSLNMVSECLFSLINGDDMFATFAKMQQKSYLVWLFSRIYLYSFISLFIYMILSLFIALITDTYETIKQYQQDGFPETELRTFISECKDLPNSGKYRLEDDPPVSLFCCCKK

EC50 [1]: > 32 µM (inactive)
EC50 [2]: > 32 µM (inactive)
EC50 [3]: > 32 µM (inactive)
IC50 [4]: > 32 µM (inactive)
EC50 [5]: > 32 µM (inactive)
IC50 [6]: > 32 µM (inactive)
IC50 [7]: > 32 µM (inactive)
SMILES: COc1ccc(S(=O)(=O)N2CCOCC2)cc1NC(=O)c1ccc(OC(F)F)cc1

SMILES: Cc1ccc(NC(=O)CN2C(=O)S/C(=C\c3ccc(C(=O)O)cc3)C2=O)cc1
IC50 [8]: > 100 µM (inactive)
IC50 [9]: > 100 µM (inactive)
IC50 [10]: 14.4 µM (active)

EC50 [11]: > 29.9 µM (inactive)
EC50 [12]: > 29.9 µM (not active)
SMILES: CCN1CCN(CCNC(=O)c2cn(Cc3ccccc3F)nn2)CC1
